From US10414769B2, “5,8-dimethyl-9-phenyl-5,8-dihydro-6H-pyrazolo[3,4-h]quinazolin-2-yl)-(1H-pyrazol-3-yl)-amines as IGF-1R/IR inhibitors” (Boehringer Ingelheim International GmbH, priority 2015, dated 2019)

Key:
Type in all cases: biochemical
[1] = target: T1, STK6 (AURKA (Aurora A)) (Homo sapiens, UniProt O14965); assay: Z'-LYTE kinase selectivity assay STK6; settings: read-out: STK6 (Aur A) % inhibition
T1 construct: purchased Life Technologies PV 3612
T1 sequence (O14965 1-403): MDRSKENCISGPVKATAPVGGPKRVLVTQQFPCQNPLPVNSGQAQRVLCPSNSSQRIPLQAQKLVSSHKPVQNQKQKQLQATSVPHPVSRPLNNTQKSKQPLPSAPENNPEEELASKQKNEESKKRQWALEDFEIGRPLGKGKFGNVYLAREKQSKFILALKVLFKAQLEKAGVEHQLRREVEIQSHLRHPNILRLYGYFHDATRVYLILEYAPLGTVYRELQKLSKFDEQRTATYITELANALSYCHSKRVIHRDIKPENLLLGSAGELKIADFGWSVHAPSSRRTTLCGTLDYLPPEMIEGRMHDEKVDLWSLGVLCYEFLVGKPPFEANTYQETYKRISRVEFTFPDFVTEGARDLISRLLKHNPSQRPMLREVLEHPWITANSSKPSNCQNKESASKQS
Text: (§1) In order to compare the kinase selectivity of compounds (I) according to the invention with known prior art compounds the commercially provided SelectScreen® Kinase Profiling Service (Z′-LYTE®) was used (Life Technologies GmbH, Darmstadt, Germany) to investigate the ability of the compounds to inhibit a number of different, representatively selected human kinases. Further details regarding this service are available on the Life Technologies website at
(§2) The Z′-LYTE® biochemical assay employs a fluorescence-based, coupled-enzyme format and is based on the differential sensitivity of phosphorylated and non-phosphorylated peptides to proteolytic cleavage. The peptide substrate is labeled with two fluorophores—one at each end—that make up a FRET pair.
(§3) In the primary reaction, the kinase transfers the gamma-phosphate of ATP to a single tyrosine, serine or threonine residue in a synthetic FRET-peptide. In the secondary reaction, a site-specific protease recognizes and cleaves non-phosphorylated FRET-peptides. Phosphorylation of FRET-peptides suppresses cleavage by the Development Reagent. Cleavage disrupts FRET between the donor (i.e., coumarin) and acceptor (i.e., fluorescein) fluorophores on the FRET-peptide, whereas uncleaved, phosphorylated FRET-peptides maintain FRET. A ratiometric method, which calculates the ratio (the Emission Ratio) of donor emission to acceptor emission after excitation of the donor fluorophore at 400 nm, is used to quantitate reaction progress, as shown in the equation below.
The Test Compounds are screened at 1 μM.
The 2×AURKA (Aurora A) (# PV 3612)/Ser/Thr 01 (Z′-LYTE® Kinase Assay Kit—Ser/Thr 1 Peptide, # PV 3174) mixture is prepared in 50 mM HEPES pH 7.5, 0.01% BRIJ-35, 10 mM MgCl2, 1 mM EGTA. The final 10 μL Kinase Reaction consists of 0.91-12.2 ng AURKA (Aurora A) and 2 μM Ser/Thr 01 in 50 mM HEPES pH 7.5, 0.01% BRIJ-35, 10 mM MgCl2, 1 mM EGTA. After the 1 hour Kinase Reaction incubation, 5 μL of a 1:4096 dilution of Development Reagent A is added.

[2] = target: T2, human IGF-1R (Homo sapiens, UniProt P08069); assay: Insulin-like growth factor-1 receptor (IGF-1R)-kinase assay (DELFIA); settings: inhibition of IGF-1R-kinase activity
T2 construct: human IGF-1R (amino acids 964-1370) is expressed as a fusion protein; made in house; host or cells: High Five insect cells (Invitrogen)
Procedure: Insulin-Like Growth Factor-1 Receptor (IGF-1R)-Kinase Assay
The kinase activity is measured by DELFIA® assay (dissociation-enhanced lanthanide fluorescence immunoassay, Perkin Elmer). The cytoplasmic kinase domain of human IGF-1R (amino acids 964-1370) is expressed as a fusion protein with a glutathione-S-transferase tag (IGF-1R-GST) in High Five™ Cells (Invitrogen). Enzyme activity is measured in the presence of substances and a control substance. Poly-glutamate-tyrosine peptide (pEY, Sigma Aldrich) and biotinylated pEY (bio-pEY) are used as reaction substrates.
10 μL of substance in 25% DMSO are mixed with 30 μL of IGF-1R-GST solution (67 mM HEPES pH 7.4, 15 μg/mL pEY, 1.7 μg/mL bio-pEY, 13.3 mM MgCl2, 3.3 mM dithiothreitol, 0.0033% Brij 35, 2 ng IGF-1R-GST) in 96-well plates. The reactions are started with 10 μL of a 750 μM ATP solution. After 40 min at RT the reactions are stopped with 50 μL of stop solution (250 mM EDTA, 20 mM HEPES pH 7.4). 90 μL from each reaction are transferred onto streptavidin-coated 96-well plates. After 120 min incubation at RT the plates are washed three times with 200 μL phosphate-buffered saline (PBS) per well. The plates are incubated for 60 min with 100 μL of europium-coupled antibody against phospho-tyrosine (diluted 1/2000 in Perkin Elmer DELFIA assay buffer) per well. The plates are washed three times with 200 μL per well of DELFIA washing buffer (Perkin Elmer). 100 μL DELFIA Enhancement Solution (Perkin Elmer) is added to each well, and the plates are incubated for 10 min. The fluorescence signal is measured with a Wallac Victor TRF Reader. IC50 values for the inhibition of the IGF-1R-kinase activity are calculated using the programme GraphPad (Version 3.0).

[3] = target: T3, MAPK8 (JNK1) (Homo sapiens, UniProt P45983); assay: Z'-LYTE kinase selectivity assay MAPK8
T3 construct: purchased Life Technologies PV 3593
Text: as §1, §2
as §3, with “Cleavage disrupts FRET between the donor (i.e., coumarin) and acceptor (i.e., fluorescein) fluorophores on the FRET-peptide, whereas uncleaved, phosphorylated FRET-peptides maintain FRET.” left out, “below. […]” for “below.”

[4] = target: T4, MAPK9 (JNK2) (Homo sapiens, UniProt P45984); assay: Z'-LYTE kinase selectivity assay MAPK9
T4 construct: purchased Life Technologies PV 4018
Text: as §1, §2
as §3, with “Cleavage disrupts FRET between the donor (i.e., coumarin) and acceptor (i.e., fluorescein) fluorophores on the FRET-peptide, whereas uncleaved, phosphorylated FRET-peptides maintain FRET.” left out, “below. […]” for “below.”

T2 sequence (P08069 964-1367 limits assumed): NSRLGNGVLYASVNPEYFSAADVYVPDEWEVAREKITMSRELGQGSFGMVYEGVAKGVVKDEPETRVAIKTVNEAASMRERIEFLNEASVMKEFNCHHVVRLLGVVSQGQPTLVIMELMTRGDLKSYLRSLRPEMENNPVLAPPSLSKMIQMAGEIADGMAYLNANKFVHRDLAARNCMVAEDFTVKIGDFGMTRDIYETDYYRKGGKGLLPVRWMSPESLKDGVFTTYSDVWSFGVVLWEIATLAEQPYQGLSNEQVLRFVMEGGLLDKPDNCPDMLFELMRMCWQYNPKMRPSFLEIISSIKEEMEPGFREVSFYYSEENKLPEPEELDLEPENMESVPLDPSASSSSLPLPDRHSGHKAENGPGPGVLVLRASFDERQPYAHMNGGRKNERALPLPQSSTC
T4 sequence (P45984 whole entry): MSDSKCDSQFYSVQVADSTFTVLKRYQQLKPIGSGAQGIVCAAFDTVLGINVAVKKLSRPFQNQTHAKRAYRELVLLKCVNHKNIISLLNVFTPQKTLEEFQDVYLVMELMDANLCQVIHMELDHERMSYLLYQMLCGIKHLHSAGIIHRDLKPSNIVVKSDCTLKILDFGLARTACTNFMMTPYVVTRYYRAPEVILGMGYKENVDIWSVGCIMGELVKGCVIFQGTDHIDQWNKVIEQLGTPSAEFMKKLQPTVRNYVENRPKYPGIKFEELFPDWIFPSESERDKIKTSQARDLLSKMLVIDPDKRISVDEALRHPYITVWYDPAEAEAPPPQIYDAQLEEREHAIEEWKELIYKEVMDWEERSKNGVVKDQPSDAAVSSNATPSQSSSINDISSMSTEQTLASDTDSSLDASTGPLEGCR
T3 sequence (P45983 whole entry): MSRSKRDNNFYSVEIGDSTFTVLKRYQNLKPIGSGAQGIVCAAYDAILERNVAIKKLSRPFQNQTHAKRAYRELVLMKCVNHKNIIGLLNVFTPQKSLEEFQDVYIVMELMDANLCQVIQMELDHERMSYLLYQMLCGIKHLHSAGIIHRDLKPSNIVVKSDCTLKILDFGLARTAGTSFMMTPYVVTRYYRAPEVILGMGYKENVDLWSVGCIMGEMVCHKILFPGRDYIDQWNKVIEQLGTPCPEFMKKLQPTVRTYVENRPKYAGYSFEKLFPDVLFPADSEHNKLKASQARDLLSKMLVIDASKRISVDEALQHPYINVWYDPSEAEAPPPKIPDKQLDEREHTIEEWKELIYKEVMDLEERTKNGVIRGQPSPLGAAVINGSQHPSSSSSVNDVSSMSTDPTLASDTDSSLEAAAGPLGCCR

Structure (SMILES) | inhibition at 1 µM [1] [%] | IC50 [2] [nM] | inhibition at 1 µM [3] [%] | inhibition at 1 µM [4] [%]
C[C@@H]1Cc2nn(C)c(-c3ccccc3)c2-c2nc(Nc3ccn(CCN4CCN(CC5CCCO5)CC4)n3)ncc21 (stereo partly shown) [Compound I-9] | 10 | 1.2 | – | –
COCCN1CCN(CCn2ccc(Nc3ncc4c(n3)-c3c(nn(C)c3-c3ccccc3)C[C@H]4C)n2)CC1 [Compound I-11] | -12 | 0.9 | 12 | 7
C[C@@H]1Cc2nn(C)c(-c3ccccc3)c2-c2nc(Nc3ccn(CCN4CCN(CC(=O)OC5CCOCC5)CC4)n3)ncc21 [Compound I-8] | 6 | 2.8 | – | –
CC(O)CN1CCN(CCn2ccc(Nc3ncc4c(n3)-c3c(nn(C)c3-c3ccccc3)C[C@H]4C)n2)CC1 (stereo partly shown) [Compound I-7] | 5 | 1 | – | –

The next lines start with the values.

inhibition at 1 µM [1] [%] | IC50 [2] [nM] | inhibition at 1 µM [3] [%] | inhibition at 1 µM [4] [%] | Structure (SMILES)
14 | 1.9 | – | – | C[C@@H]1Cc2nn(C)c(-c3ccccc3)c2-c2nc(Nc3ccn(CCN4CCN(CC(C)(C)O)CC4)n3)ncc21 [Compound I-3]
-15 | 0.9 | – | – | C[C@@H]1Cc2nn(C)c(-c3ccccc3)c2-c2nc(Nc3ccn(CCN4CCN(C)CC4)n3)ncc21 [Compound I-1]
12 | 1.3 | – | – | C[C@@H]1Cc2nn(C)c(-c3ccccc3)c2-c2nc(Nc3ccn(CCN4CCOCC4)n3)ncc21 [Compound I-2]
